Where a SMILES comes first, the peptide text is derived from it. Bridges are numbered along the chain shown (N, C = ends). [ ]: non-standard residue; d: D form.
Experiments:
[1] = system: gastric HCl secretion induced by the C-terminal tetrapeptide of gastrin; experiment: in vivo inhibition of gastric acid secretion in dogs with chronic fistula and Heidenhain pouch
Procedure: D-Ser^2, D-Trp^8 -somatostatin was tested in dogs for its in vivo inhibition of gastric acid secretion. In six dogs with chronic fistula and Heidenhain pouch, gastric HCl secretion was induced by infusion of the C-terminal tetrapeptide of gastrin at 0.5 μg/kg-hr. Each dog served as its own control, receiving on a separate day only the tetrapeptide. On another day, the six dogs received the tetrapeptide, and, after one hour of steady state secretion of HCl, D-Ser^2, D-Trp^8 -somatostatin was infused at 0.20 μg/kg-hr. for one hour. Collection of gastric acid samples was continued for an additional 1.5 hours at 15 minute intervals. The samples were titrated to pH 7 with an automatic titrator. The maximal inhibitory effect of the D-Ser^2, D-Trp^8 -somatostatin was extrapolated against the dose-response curve of somatostatin, and the relative potency of the analog to that of somatostatin is expressed as percent activity. D-Ser^2, D-Trp^8 -somatostatin inhibited steady state acid secretion induced by the C-terminal tetrapeptide of gastrin by 73.5 ± 4.8% standard error of mean. This effect is equivalent to that of 0.545 μg/kg-hr. of somatostatin. Its activity relative to that of somatostatin thus is 273%.

[2] = system: gut motility; experiment: action on gut motility in conscious dogs (intralumenal pressure); assay type: in vivo; conditions: intravenous infusion over ten minutes, pylorus, duodenum, antrum
Procedure: D-Ser^2, D-Trp^8 -somatostatin also was tested for its action on gut motility in conscious dogs. Three dogs having intralumenal catheters placed in the antrum, duodenum, and pylorus were used. Pressure changes in the gut lumen were recorded on a Visicorder using strain gauges and miniature light beam galvanometers. After a steady state control was established, D-Ser^2, D-Trp^8 -somatostatin was infused intravenously over a ten minute period. […] This compared to a minimum effective dose of 0.125-0.25 μg./kg.--10 minutes for somatostatin itself.

[3] = system: pancreatic secretion; experiment: inhibition of pancreatic secretion in dogs with pancreatic and total gastric fistula; assay type: in vivo
Procedure: In three dogs having both pancreatic and total gastric fistula, secretion from the pancreas was induced by infusion of […] at 2 units/kg-hr. and cholecystokinin at 0.45 unit/kg-hr., and gastric HCl by infusion of tetragastrin at 0.5 μg/kg-hr. After a steady response was established, each dog received D-Ser^2, D-Trp^8 -somatostatin for one hour at 0.2 μg/kg-hr. The peak inhibitory effect expressed as percent change over control for total protein was -76%. This corresponds to the inhibitory effect obtained by administration of about 0.6 μg/kg-hr. of somatostatin.

[4] = system: growth hormone secretion; experiment: release of growth hormone in sodium pentobarbital-stimulated rats; assay type: in vivo, male Spraque-Dawley rats; conditions: serum GH at 20 minutes
Procedure: D-Ser^2, D-Trp^8 -somatostatin also was tested for its activity with respect to the release of growth hormone. The procedure which was employed is carried out using male Spraque-Dawley rats weighing 100-120 grams (Laboratory Supply Company, Indianapolis, Ind.). The test is a modification of the method of P. Brazeau, W. Vale, and R. Guilleman, Endocrinology, 94 184 (1974). In this assay, five groups of eight rats each were employed. Sodium pentobarbital was administered intraperitoneally to all of the rats to stimulate growth hormone secretion. One group served as the control and received only saline. Two of the groups received somatostatin, one at 2 μg./rat, subcutaneously, and the other at 50 μg./rat, subcutaneously. The other two groups received D-Ser^2, D-Trp^8 -somatostatin, one at 2 μg./rat, subcutaneously, and the other at 50 μg./rat, subcutaneously. The serum concentration of growth hormone was measured 20 minutes after simultaneous administration of sodium pentobarbital and test compound. The degree of inhibition of serum growth hormone concentration then was determined with respect to the control group, and the relative activities of D-Ser^2, D-Trp^8 -somatostatin and somatostatin itself were compared. […]

[5] = system: glucagon and insulin secretion; experiment: in vivo inhibition of glucagon and insulin secretion upon stimulation with L-alanine; parameters: species or system mongrel dogs; conditions: fasted dogs, intravenous infusion
Procedure: D-Ser^2, D-Trp^8 -somatostatin was tested for its in vivo activity in inhibiting glucagon and insulin secretion upon stimulation with L-alanine. Normal mongrel dogs of either sex were fasted overnight. Control blood samples were obtained, and then an intravenous infusion of saline, somatostatin, or D-Ser^2, D-Trp^8 -somatostatin was started. After 30 minutes, L-alanine additionally was administered intravenously for a period of 15 minutes. The infusion of saline, somatostatin, or D-Ser^2, D-Trp^8 -somatostatin was continued for 15 minutes after completion of the L-alanine infusion. From the above it was determined that the minimal effective concentration of D-Ser^2, D-Trp^8 -somatostatin is about 25 nanograms/kg./min. whereas the minimal effective concentration of somatostatin is about 100 nanograms/kg./min.

With C[C@H](N)C(=O)N[C@H](CO)C(=O)N[C@H]1CSSC[C@@H](C(=O)O)NC(=O)[C@H](CO)NC(=O)[C@H]([C@@H](C)O)NC(=O)[C@H](Cc2ccccc2)NC(=O)[C@H]([C@@H](C)O)NC(=O)[C@H](CCCCN)NC(=O)[C@@H](Cc2c[nH]c3ccccc23)NC(=O)[C@H](Cc2ccccc2)NC(=O)[C@H](Cc2ccccc2)NC(=O)[C@H](CC(N)=O)NC(=O)[C@H](CCCCN)NC1=O [D-Ser^2, D-Trp^8 -somatostatin] (H-A[dS]CKNFF[dW]KTFTSC-OH; disulfide 3-14) the “dose of somatostatin with equivalent effect on acid secretion” value ([1]; analog at 0.20 μg/kg-hr., extrapolated against dose-response curve of somatostatin) was 0.545 μg/kg-hr, the “inhibition of steady state acid secretion induced by the C-terminal tetrapeptide of gastrin” value ([1]; infused at 0.20 μg/kg-hr. for one hour, ± standard error of mean) was 73.5 ± 4.8% and the “activity relative to that of somatostatin (gastric acid secretion)” value ([1]; relative potency expressed as percent activity) was 273%. For the same compound, the “effect on intralumenal pressure” value [2] was “initially increased the intralumenal pressure in the pylorus and then decreased it whereas the pressure in the duodenum and the antrum remained depressed throughout the test”, the “peak inhibitory effect, percent change over control for total protein” value ([3]; 0.2 μg/kg-hr for one hour, pancreatic secretion induced by secretin and cholecystokinin) was -76% and the “dose of somatostatin giving corresponding inhibitory effect on pancreatic secretion” value ([3]; analog at 0.2 μg/kg-hr) was “about 0.6 μg/kg-hr”. For the same compound, the “inhibition of growth hormone secretion over control” value ([4]; 2 μg./rat subcutaneously) was “same effect on growth hormone secretion as somatostatin”, the “inhibition of growth hormone secretion over control” value ([4]; 50 μg./rat subcutaneously) was 66% and the “minimal effective concentration for inhibiting glucagon and insulin secretion” value [5] was “about 25 nanograms/kg./min”.

Reference: US4093574A, “Somatostatin analogs and intermediates thereto” (Eli Lilly and Company, priority 1977, dated 1978)
